Experiments:
nitrilase bll6402 [1] = target: T1, nitrilase bll6402 (Bradyrhizobium diazoefficiens, UniProt Q89GE3); assay: Substrate specificity: specific/relative activity by ammonia release; assay type: biochemical, Bradyrhizobium japonicum USDA110; details: for Relative Activity: 25 mM substrate, pH 7.2, 30° C., phenylacetonitrile defined as 100
Method: The standard assays were carried out by mixing the substrate nitrile and purified nitrilase enzyme in potassium phosphate buffer (100 mM, pH 7.2). The reaction mixture was incubated at 30° C. Samples (100 μL) of the reaction mixture were withdrawn at several time intervals and quenched with 10 μl of 1 M HCl. The amount of ammonia produced in the reaction was measured using Bertholet assay as follows: A 100 μL aliquot of each of the following assay reagents was added subsequently: 0.02 M NaOCl, 0.33 M sodium phenoxide and 0.01% sodium nitroprusside solution. The mixture was then heated at 95° C. for 2 min, cooled rapidly in ice-water bath, and 200 μl of the mixture was then placed in a 96-well plate to measure the absorbance at 640 nm using SpectraMax M2 microplate reader (Molecular Devices). The amount of ammonia released during the hydrolysis was calculated by comparison with the standard curve obtained with standard ammonium chloride solution, and the activity was defined as the number of μmol of ammonia produced in 1 minute by 1 mg of enzyme (μmol·min^−1·mg^−1). To determine the kinetic parameters of the purified protein for mandelonitrile, activity assays were performed with different substrate concentrations, and Vmax and Km were calculated by best fitting the curve to experimental data according to Michaelis equation.
The specific activities of nitrilase bll6402 toward 24 different nitrites with structural diversity were measured by the quantification of the amount of ammonia released during the hydrolysis. A reaction mixture containing 20 or 40 μg of purified bll6402 enzyme, 25 mM substrate in potassium phosphate buffer (1 ml, 100 mM, pH 7.2) was incubated at 30° C. The conversion was determined by measuring the amount of ammonia produced in the reaction using Bertholet assay as described above.

nitrilase bll6402 [2] = target: T1, nitrilase bll6402; assay: Regioselective hydrolysis of 1-cyanocycloalkaneacetonitriles; assay type: biochemical, Bradyrhizobium japonicum USDA110; details: 200 mg dinitrile, 10 mg nitrilase, pH 7.2, 30° C.
Method: The general procedure was followed: 1-Cyanocycloalkaneacetonitiles (200 mg) was treated with the nitrilase (10 mg) in potassium phosphate buffer (50 ml, 100 mM, pH=7.2). The reaction mixture was incubated at 30° C. and monitored by ^13C NMR. When dinitrile was consumed, the mixture was acidified with 1 N HCl solution to pH˜5, saturated with NaCl and extracted with ethyl acetate. The organic extract was dried over anhydrous sodium sulfate. Removal of solvent provided the desired product, which was further purified by preparative TLC using ethyl acetate-hexane (35/65, v/v) as eluting solvent.

nitrilase bll6402 [3] = target: T1, nitrilase bll6402; assay: Hydrolysis of aromatic α-hydroxy nitriles, conversion by HPLC; assay type: biochemical, Bradyrhizobium japonicum USDA110; details: 25 mM nitrile, 0.16 mg nitrilase in 1 mL, pH 7.2, overnight at 30° C.
Method: To further characterize the efficiency of nitrilase b116402 to catalyze the hydrolysis of mandelonitrile derivatives to the corresponding carboxylic acids, the hydrolysis of several aromatic α-hydroxy nitrites were carried out and the product carboxylic acids were characterized by HPLC analysis. An example procedure was as follows: aromatic α-hydroxynitriles (25 mM) were treated with 0.16 mg nitrilase bll6402 in 1 mL of potassium phosphate buffer (100 mM, pH 7.2). The reaction mixture was incubated overnight at 30° C. A sample was withdrawn and analyzed by HPLC (column: Agilent C8, eluent: MeOH:H2O=20:80, flow rate: 1 mL/min, detector: 254 nm) and the products were identified by comparison with the authentic standards.

nitrilase bll6402 [4] = target: T1, nitrilase bll6402; assay type: biochemical, Bradyrhizobium japonicum USDA110; details: pH 7.2
nitrilase bll6402 [5] = target: T1, nitrilase bll6402; assay: Selective hydrolysis of dinitriles to cyanocarboxylic acids; assay type: biochemical, Bradyrhizobium japonicum USDA110; details: selective hydrolysis of dinitrile
Excerpt: Because of the synthetic importance of selective hydrolysis of dinitriles to […], nitrilase bll6402 was studied toward the hydrolysis of a series of dinitriles (e.g., scheme 6). [drawing 6]
The selectivity was not dependent on the chain length. This was different from the results obtained with nitrilases from Arabidopsis thaliana, acidovorax facilis 72W and cyanobacterium Synechocystis sp. strain PCC 6803, in which di-acids were obtained as the chain length increased.

nitrilase bll6402 [6] = target: T1, nitrilase bll6402; assay: Enantioselective hydrolysis of β-hydroxy nitriles; assay type: biochemical, Bradyrhizobium japonicum USDA110
Method: β-Hydroxy nitrites were prepared by the cyanization of α-bromoketones with sodium cyanide followed by NaBH4 reduction. The obtained β-hydroxy nitrites were treated with purified nitrilase bll6402 in potassium phosphate buffer (100 mM, pH 7.0), and the reaction mixture was incubated overnight at 30° C. The mixture was then saturated with NaCl and extracted with ethyl acetate. The extract was dried over sodium sulfate, and evaporation of the solvent under reduced pressure afforded the crude products. The β-hydroxy carboxylic acids were separated from unreacted β-hydroxy nitrites by preparative thin-layer chromatography.
The ee values of both the product acids and the recovered nitrites were measured by chiral HPLC analysis, and their absolute configurations were determined by comparing the sign of optical rotation with the literature data. The enantiomeric ratios (E) were calculated using the equations proposed by Sih et al. (J. Am. Chem. Soc. 1982, 104, 7294-7299). The results are presented in Table 6 together with the data for the hydrolysis of mandelonitrile under the same conditions.

[7] = test system: arylacetonitrilases from Alcaligenes faecalis ATCC8750 and JM3; details: known arylacetonitrilases; cited from earlier work
[8] = Effects of temperature, pH and organic solvents on nitrilase activity; assay type: biochemical; details: 30% (v/v) of hexane, tert-butyl methyl ether or toluene; 30° C., pH 7.1, 4 hours
Method: For the determination of temperature effect, a mixture of nitrilase (0.5 mg) with benzyl cyanide (50 mM) in 1.0 ml of potassium phosphate buffer (100 mM, pH 7.1) was incubated at 25° C., 30° C., 37° C. and 45° C., respectively. Aliquots (100 μl) were taken after 1, 2, 4, and 16 hrs intervals, and acidified with 10 μl of 1M HC1. The formed phenylacetic acid was extracted into 200 μl of tert-butyl methyl ether, dried over anhydrous sodium sulfate, and quantified by GC analysis after converting to methyl ester with diazomethane.
The pH effect was studied using the following buffer: sodium citrate buffer (pH 4.91 and 5.44), potassium phosphate buffer (pH 6.07, 6.52, 7.10, 7.58, 7.98 and 8.49) and sodium bicarbonate buffer (pH 8.98). A mixture of nitrilase (0.5 mg) with benzyl cyanide (50 mM) in 1.0 ml of the respective buffer (100 mM) was incubated at 30° C. […] The formed phenylacetic acid was extracted into 200 μl of tert-butyl methyl ether, dried over anhydrous sodium sulfate, and quantified by GC analysis after converting to methyl ester with diazomethane.
The organic solvent effects were evaluated with dimethyl sulfoxide (DMSO), tert-butyl methyl ether, hexane, toluene and butyl acetate. […] The formed phenylacetic acid was extracted into 1 ml of tert-butyl methyl ether, dried over anhydrous sodium sulfate, and quantified by GC analysis after converting to methyl ester with diazomethane.

[9] = pH 7.0, overnight at 30° C., isolated yield

T1 sequence (Q89GE3 whole entry, looked up): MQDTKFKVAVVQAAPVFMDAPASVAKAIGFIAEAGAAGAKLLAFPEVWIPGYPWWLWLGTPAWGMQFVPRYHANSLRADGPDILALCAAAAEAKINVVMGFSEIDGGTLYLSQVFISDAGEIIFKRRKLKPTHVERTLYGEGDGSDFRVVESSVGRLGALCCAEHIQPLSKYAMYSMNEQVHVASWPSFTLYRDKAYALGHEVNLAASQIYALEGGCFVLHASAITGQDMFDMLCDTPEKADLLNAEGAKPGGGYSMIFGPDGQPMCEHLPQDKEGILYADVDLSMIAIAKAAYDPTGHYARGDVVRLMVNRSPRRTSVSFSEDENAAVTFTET

## CCC(C#N)c1ccccc1 (stereo not drawn) [α-Phenylbutyronitrile]
Nitrilase bll6402 [1]
  Relative Activity: 8

## N#CCC1(C#N)CCCCCC1 [1-cyanocycloheptaneacetonitrile]
Nitrilase bll6402 [2]
  isolated yield of corresponding cyanocarboxylic acid: 54%

## CCCCCCC#N [Heptanenitrile]
Nitrilase bll6402 [1]
  Relative Activity: 22

## C=CCC#N [Allyl cyanide]
Nitrilase bll6402 [1]
  Relative Activity: 2

## N#CC(O)c1cccc(O)c1 (stereo not drawn) [α-Hydroxy-α-(m-hydroxyphenyl)acetonitrile]
Nitrilase bll6402 [3]
  Conversion(%): 94%

## CSCC#N [Methylthioacetonitrile]
Nitrilase bll6402 [1]
  Relative Activity: 1
Nitrilase bll6402 [4]
  Yield (%) of product carboxylic acid: 96%

## N#CCCCC#N [Glutaronitrile]
Nitrilase bll6402 [5]
  Yield (%) of cyanocarboxylic acid: 93%

## N#CCCCCl [4-Chlorobutyronitrile]
Nitrilase bll6402 [1]
  Relative Activity: 6

## CCCCC#N [Valeronitrile]
Nitrilase bll6402 [1]
  Relative Activity: 6

## N#Cc1ccccc1 [Benzonitrile]
Nitrilase bll6402 [1]
  Relative Activity: 1

## N#CCCN [3-Aminopropionitrile]
Nitrilase bll6402 [1]
  Relative Activity: 1

## N#CC(N)c1ccccc1 (stereo not drawn) [2-Phenylglycinonitrile]
Nitrilase bll6402 [1]
  Relative Activity: 3

## N#CCCCCCCC#N [1,6-Dicyanohexane]
Nitrilase bll6402 [5]
  Yield (%) of cyanocarboxylic acid: 88%

## N#C/C=C/C#N [Fumaronitrile]
Nitrilase bll6402 [5]
  Yield (%) of cyanocarboxylic acid: 84%

## CCCC#N [n-Butyronitrile]
Nitrilase bll6402 [1]
  Relative Activity: 3
Nitrilase bll6402 [4]
  Yield (%) of product carboxylic acid: 61%

## N#CCCc1ccccc1 [Hydrocinnamonitrile]
Nitrilase bll6402 [1]
  Relative Activity: 13

## N#CCCC#N [Succinonitrile]
Nitrilase bll6402 [5]
  Yield (%) of cyanocarboxylic acid: 97%

## N#CCCCCCCCCC#N [Sebeconitrile]
Nitrilase bll6402 [5]
  Yield (%) of cyanocarboxylic acid: 88%

## N#CCC1(C#N)CCCC1 [1-cyanocyclopentaneacetonitrile]
Nitrilase bll6402 [2]
  isolated yield of corresponding cyanocarboxylic acid: 92%

## CC(C)(C#N)C#N [α,α-Dimethylmalononitrile]
Nitrilase bll6402 [5]
  Yield (%) of cyanocarboxylic acid: 93%

## CCCCCC#N [Hexanenitrile]
Nitrilase bll6402 [1]
  Relative Activity: 16

## N#CCCCc1ccccc1 [4-Phenylbutyronitrile]
Nitrilase bll6402 [1]
  Relative Activity: 4

## N#CCCCCC#N [1,4-Dicyanobutane]
Nitrilase bll6402 [1]
  Relative Activity: 5
Nitrilase bll6402 [5]
  Yield (%) of cyanocarboxylic acid: 97%

## CN(C)C(C#N)c1ccccc1 (stereo not drawn) [α-N,N-Dimethylaminophenylacetonitrile]
Nitrilase bll6402 [1]
  Relative Activity: 1

## CC(=O)c1ccc(C#N)cc1 [4-Acetylbenzonitrile]
Nitrilase bll6402 [1]
  Relative Activity: 2

## CC(CC#N)c1ccccc1 (stereo not drawn) [3-phenylbutyronitrile]
Nitrilase bll6402 [6]; same conditions as β-hydroxy nitriles
  hydrolysis by nitrilase bll6402 (result in words): not hydrolyzed

## N#CC(O)c1ccccc1 (stereo not drawn) [Mandelonitrile]
Nitrilase bll6402 [1]
  Relative Activity: 460
Nitrilase bll6402 [1]; hydrolysis by nitrilase bll6402
  activity relative to that of phenylacetonitrile: 4.6 times
Nitrilase bll6402 [3]
  Conversion(%): 98%
[7]
  activity as % of that for phenylacetonitrile: 12-15%
Nitrilase bll6402 [6]; pH 7.0, overnight at 30° C., chiral HPLC
  product acid (S)-2 ee (%): 0%
Nitrilase bll6402 [6]; [9]
  product acid (S)-2 yield (%): 98%
  recovered nitrile (R)-1 yield (%): 0%

## C[Si](C)(C)OC(C#N)c1ccccc1 (stereo not drawn) [α-Trimethylsilyloxyphenylacetonitrile]
Nitrilase bll6402 [1]
  Relative Activity: 165
Nitrilase bll6402 [3]
  Conversion(%): 99%

## N#CCCCCCC#N [1,5-Dicyanopentane]
Nitrilase bll6402 [5]
  Yield (%) of cyanocarboxylic acid: 90%

## CC=CC#N [Crotononitrile]
Nitrilase bll6402 [1]
  Relative Activity: 3

## N#CC(O)c1ccc(O)cc1 (stereo not drawn) [α-Hydroxy-α-(p-hydroxyphenyl)acetonitrile]
Nitrilase bll6402 [3]
  Conversion(%): 88%

## N#CCc1ccccc1 [Phenylacetonitrile]
Nitrilase bll6402 [1]
  Relative Activity: 100

## N#CCc1c[nH]c2ccccc12 [3-Indolylacetonitrile]
Nitrilase bll6402 [1]
  Relative Activity: 2

## N#CCCO [3-Hydroxypropionitrile]
Nitrilase bll6402 [1]
  Relative Activity: 1

## nitrilase bll6402: nitrilase (mandelonitrile hydrolase) from Bradyrhizobium japonicum USDA110, amino acid SEQ ID NO: 2, expressed in E. coli
[8]
  retained activity in biphasic systems: more than 70%

## CC(C#N)CCC#N (stereo not drawn) [2-Methylglutaronitrile]
Nitrilase bll6402 [1]
  Relative Activity: 3

## N#CCC1(C#N)CCCCC1 [1-cyancyclohexaneacetonitrile]
Nitrilase bll6402 [2]
  isolated yield of corresponding cyanocarboxylic acid: 88%

## CC(C#N)c1ccccc1 (stereo not drawn) [α-phenylpropionitrile]
Nitrilase bll6402 [1]
  Relative Activity: 10

From patent US20070178575A1, “Identification Of A Nitrilase From B. Japonicum By Rational Genome Mining And Methods Of Use” (priority 2005, published 2007)
